Laboratory results reported in ChEMBL document CHEMBL4476864, “Azapeptides as cd36 binding compounds” (2013).
Activity calls are given as the source filed them. The rule behind the calls is not given here. Starred links: 1 amine or outer side, 2 acyl side, 3 side chain; linkers in the order of their positions; H or OH if unused. Non-standard residues stand in square brackets, D forms with d. Residues, ends and D or L forms follow the SMILES beside them. azaTyr = O=C(N(Cc1ccc(O)cc1)N[*:1])[*:2]

How the values were obtained:
Aorta [1] = test: Inhibition of vascular sprouting in CD36+/+ C57BL/6 mouse aortic rings exposed on day 4 to 6; type: functional, tissue-based
Aorta [2] = test: Inhibition of vascular sprouting in CD36-/- C57BL/6 mouse aortic rings exposed on day 4 to 6; type: functional, tissue-based
Mus musculus [3] = test: Inhibition of choroidal neovascularization in CD36+/+ C57BL/6 mouse model of FITC-conjugated dextran infusion following laser-induced posterior retinal injury administered in to vitreous tissue; type: functional
Mus musculus [4] = test: Inhibition of choroidal neovascularization in CD36-/- C57BL/6 mouse model of FITC-conjugated dextran infusion following laser-induced posterior retinal injury administered in to vitreous tissue; type: functional, organism-based

C[C@H](NC(=O)[C@@H](Cc1c[nH]c2ccccc12)NC(=O)[C@@H](N)Cc1cnc[nH]1)C(=O)NN(Cc1ccc(O)cc1)C(=O)N[C@H](Cc1ccccc1)C(=O)N[C@@H](CCCCN)C(N)=O (H-H[dW]A[azaTyr][dF]K-NH2)
inhibition (Aorta [1]): Dose-dependent effect
inhibition (Aorta [2]): inactive
inhibition (INH) (Mus musculus [3]): >50%
inhibition (Mus musculus [4]): inactive
